Test results taken from publication PMC7558015, “Enhanced Intestinal Absorption and Pharmacokinetic Modulation of Berberine and Its Metabolites through the Inhibition of P-Glycoprotein and Intestinal Metabolism in Rats Using a Berberine Mixed Micelle Formulation” (Pharmaceutics, 2020).
Where two headings read alike, the source gives them in different places. Blank lines part the entries; values can stand above or below the compound they belong to.

Experiments:
[1] = rats; cited from earlier work
[2] = test system: human colon cancer HCT-8 cells; parameters: method as in PMID 23682426; settings: cited from earlier work
[3] = Pharmacokinetic study after oral administration in rats; type: in vivo
Procedure: All the animal procedures were approved by the animal care and use committee of Kyungpook National University (Daegu, Korea; Approval No. KNU-2014-0097 and KNU-2019-0004). Male Sprague–Dawley rats weighing 250–270 g (8 weeks old) were purchased from Samtako Bio Korea (Osan, Kyunggido, Korea). When the rats arrived, they were housed with a 12 h light/dark cycle. Food and water were supplied ad libitum for 1 week prior to the animal experiment. […] The femoral vein, femoral arteries, and bile ducts of the rats were cannulated with polyethylene tubes (PE50 or PE10, Jungdo, Seoul, Korea) under anesthesia with isoflurane […] on the warming surgery table (YTK corp. Seoul, Korea), and the rats were remained on the warming table to maintain body temperature during the pharmacokinetic study. […] The prepared berberine suspension or berberine formulation was administered to rats via oral gavage. Blood samples (approximately 150 µL) were taken via the femoral artery at 0, 0.25, 0.5, 1, 1.5, 2, 4, 8, and 12 h after the oral administration, and pre-warmed saline (approximately 150 µL) was injected into the femoral vein to compensate the blood loss. The blood samples were centrifuged at 10,000× g for 1 min at 4 °C. Bile and urine samples were collected every 4 h for 12 h. After 12 h, the bile and urine samples were pooled and weighed. Aliquots (50 µL each) of plasma, urine, and bile samples were stored at −80 °C for the analysis of berberine and its metabolites. Plasma, urine, and bile samples (50 µL) were added to 150 µL of methanol containing propranolol (10 ng/mL), vortex-mixed for 15 min, and centrifuged at 10,000× g for 5 min at 4 °C. An aliquot (10 µL) of the supernatant was injected into the LC–MS/MS system. Agilent 6430 Triple Quad LC/MS system (Agilent, Wilmington, DE, USA) coupled with an Agilent 1260 series HPLC system was used for the analysis of berberine and its metabolites using the modified method of Kwon et al.. The separation was performed on a Synergy polar RP column (2.0 mm × 150 mm, 4 μm; Phenomenex, Torrance, CA, USA) using a gradient elution of the mobile phase that consisted of methanol and water with 0.1% formic acid at a flow rate of 0.2 mL/min. The composition of the mobile phase was as follows: 55% methanol for 0–2.5 min, 70% methanol for 3–5 min, 55% methanol for 5.3–12 min. The retention time was 3.01 min and 3.53 min for thalifendine-glucuronide and berberrubine-glucuronide, 6.30 min for thalifendine-sulfate, 7.79 min for berberine, 5.47 min for thalifendine, 6.38 min for berberrubine, and 2.53 min for propranolol. Mass spectra were recorded by electrospray ionization with a positive mode. Quantification was carried out using MRM at m/z 498.1 → 322.1 for thalifendine-glucuronide and berberrubine-glucuronide, m/z 402.0 → 322.1 for thalifendine-sulfate, m/z 336.1 → 320.0 for berberine, m/z 322.1 → 307.1 for thalifendine and berberrubine, and m/z 260.0 → 116.0 for propranolol. […] The thalifendine-glucuronide, berberrubine-glucuronide, and thalifendine-sulfate were relatively quantitated using berberine’s standard curve, since the authentic standard compounds were not available. The pharmacokinetic parameters were calculated by non-compartmental analysis using the WinNonlin Version 5.1 software (Pharsight, Certara, NJ, USA). Statistical analysis was performed using SPSS for Windows (version 24.0; IBM Corp., Armonk, NY, USA).

[4] = test system: β-Glucuronidase and sulfatase; assay: Glucuronidase and sulfatase treatment (bile samples, stability of standards); type: in vitro ADME, Helix pomatia
Procedure: The reaction was terminated by adding 150 µL of ice-cold methanol containing propranolol (10 ng/mL), vortex-mixed for 5 min, and centrifuged at 10,000× g for 5 min at 4 °C. An aliquot (10 µL) of the supernatant was injected into the LC–MS/MS system.

[5] = parameters: method as in PMID 15531889; settings: 32 hypercholesterolemic patients; cited from earlier work
Caco-2 cells [6] = assay: cells
Procedure: Caco-2 cells were seeded onto 96-well plates (BD-Corning, Corning, NY, USA) at a density of 1 × 10^5 cells/well, and cultured for 24 h at 37 °C in a 5% CO2 incubator. […] As a control group, berberine was treated at concentrations of 0, 1, 5, 10, 50, 100, 500, and 1000 μM. After 24 h of treatment, 20 μL of CellTiter 96 aqueous one solution from a cell proliferation assay kit (Promega, Madison, WI, USA) was added to the culture medium and incubated for 1 h. The absorbance rate of the reaction mixture was measured at 492 nm using an Infiniti M200Pro microplate reader (Tecan, Zurich, Switzerland).

Caco-2 cells [7] = assay: Caco-2 permeability / transport of berberine and berberine formulation; type: in vitro ADME
Procedure: (§1) The cells were grown for 21 days and the culture medium was changed every 2 days. The integrity of the cell monolayers was evaluated prior to the transport experiments by measuring the transepithelial electrical resistance (TEER). […] To characterize the absorption transport of berberine in Caco-2 cells, the apical to basal (A to B) and basal to apical (B to A) transport of berberine was measured. […] The insert was then transferred to a well containing fresh HBSS medium every 15 min for 1 h. […] The transport medium on the apical side was replaced with 0.4 mL of fresh incubation medium every 15 min for 1 h. […] The insert was then transferred to a well containing fresh HBSS medium every 15 min for 1 h. […] The transport medium on the apical side was replaced with 0.4 mL of fresh incubation medium every 15 min for 1 h. […] The TEER values were monitored before and after the transport experiments with berberine formulation using an epithelial TEER meter (World Precision Instruments, Sarasota, FL, USA). A 100 μL aliquot of each sample was added to a 100 μL aliquot of ice-cold methanol containing 10 ng/mL of propranolol (IS). After vortexing and centrifuging the samples at 16,000× g for 10 min, the supernatant was injected directly into the LC-MS/MS system.

[8] = as above; type: in vitro ADME; settings: human
Procedure: as §1

[9] = cited from earlier work
[10] = after Berberine Formulation PO 50 mg/kg, rats
[11] = after Berberine PO 50 mg/kg, rats
[12] = berberine formulation group compared with berberine group, PO 50 mg/kg, rats
[13] = male, Sprague–Dawley, rat, plasma, po, 50 mg/kg, plasma, after Berberine Formulation PO 50 mg/kg, rats
[14] = male, Sprague–Dawley, rat, plasma, po, 50 mg/kg, plasma, after Berberine Formulation PO 50 mg/kg, rats, read-out: Tmax (converted)
[15] = male, Sprague–Dawley, rat, plasma, po, 50 mg/kg, plasma, after Berberine PO 50 mg/kg, rats
[16] = male, Sprague–Dawley, rat, plasma, po, 50 mg/kg, plasma, after Berberine PO 50 mg/kg, rats, read-out: Tmax (converted)
[17] = 8 h of incubation, 37 °C, pH 5.0

Xb,12h (amount excreted into bile for 12 h) [3, 10]: 992 ± 563 ng | Xu,12h (amount excreted into urine for 12 h) [3, 10]: 21,273 ± 12,517 ng | Xb,12h (amount excreted into bile for 12 h) [3, 11]: 323.7 ± 155.8 ng | Xu,12h (amount excreted into urine for 12 h) [3, 11]: 47.3 ± 30.1 ng | fold increase in AUC [3, 12]: 15.6 fold | AUC [3, 13]: 537 ng·h/mL | Cmax [3, 13]: 140 ± 29.4 ng/mL | Tmax [3, 14]: 0.583 h | AUC [3, 15]: 34.5 ng·h/mL | Cmax [3, 15]: 67 ± 66.9 ng/mL | Tmax [3, 16]: 0.5 h | stability after glucuronidase and sulfatase treatment [4, 17]: stable | IC50 (Caco-2 cells [6]; Homo sapiens, Caco-2, 24 h, read-out: IC50 (cell viability)): 933 µM | efflux ratio (Caco-2 cells [7]; 100 μM of berberine (alone or in formulation)): 7.54 | CLint (P-gp-mediated efflux clearance) (Caco-2 cells [7]; Caco-2): 1.61 µL/min | Kd (absorptive diffusion clearance) (Caco-2 cells [7]; Caco-2): 0.03 µL/min | efflux ratio at 1 h, 1 μM ([8]; Caco-2, pH 7.4, 1 μM of berberine (alone or in formulation)): 14.1 | efflux ratio at 1 h, 100 μM ([8]; Caco-2, pH 7.4, 100 μM of berberine (alone or in formulation)): 7.5 | efflux ratio at 1 h, 10 μM ([8]; Caco-2, pH 7.4, berberine 10 μM, absence of CsA): 13.8 | efflux ratio at 1 h, 10 μM ([8]; Caco-2, pH 7.4, with cyclosporine A 25 μM, berberine 10 μM, presence of CsA 25 μM): 2.2
Compound: COc1ccc2cc3[n+](cc2c1OC)CCc1cc2c(cc1-3)OCO2 [Berberine]
AUC post intraduodenal administration as share of AUC post intraportal vein administration [1]: ~0.5% | AUC post intraportal vein administration as share of intravenous AUC [1]: 72% | bioavailability [1]: 0.68% | oral dose disappeared during gastrointestinal first-pass elimination [1]: 99.5% | IC50 [2]: 470 µM | decrease of low-density lipoprotein (LDL) cholesterol [5]: 25% | decrease of triglycerides [5]: 35% | lowering of total cholesterol [5]: 29% | berberine concentration without (significant) cytotoxicity (Caco-2 cells [6]; human, 24 h): up to 100 μM | Vmax of B to A transport (Caco-2 cells [7]; Caco-2, 1–100 μM, Michaelis–Menten): 10.5 pmol/min | Km (Caco-2 cells [7]; Caco-2, 1–100 μM, Michaelis–Menten, read-out: Km of B to A transport): 6.5 µM | AUCliver ([9]; liver): 728.6 ng·h/mL | share of oral dose entering the portal vein ([9]; oral): 0.5% | share of oral dose metabolized in the enterocytes ([9]; oral): About 43.5% | share of oral dose not absorbed (P-gp-mediated efflux and self-aggregation) ([9]; oral): About 56% | AUCplasma ([9]; plasma): 86.4 ng·h/mL

Metabolic ratio (metabolite AUC to berberine AUC) [3, 10]: 0.00% | Xb,12h (amount excreted into bile for 12 h) [3, 10]: 0 ng | Xu,12h (amount excreted into urine for 12 h) [3, 10]: 67.78 ± 11.89 ng | Metabolic ratio (metabolite AUC to berberine AUC) [3, 11]: 0.04% | Xb,12h (amount excreted into bile for 12 h) [3, 11]: 0 ng | Xu,12h (amount excreted into urine for 12 h) [3, 11]: 22.80 ± 15.84 ng | AUC [3, 13]: 1.73 ng·h/mL | Cmax [3, 13]: 0.31 ± 0.18 ng/mL | Tmax [3, 14]: 0.917 h | AUC [3, 15]: 1.34 ng·h/mL | Cmax [3, 15]: 0.16 ± 0.03 ng/mL | Tmax [3, 16]: 4.17 h | degraded by glucuronidase and sulfatase treatment [4, 17]: more than 94%
Compound: COc1ccc2cc3[n+](cc2c1O)CCc1cc2c(cc1-3)OCO2 [Berberrubine]

Xb,12h (amount excreted into bile for 12 h) [3, 10]: 1871 ± 1092 ng | Xu,12h (amount excreted into urine for 12 h) [3, 10]: 7209 ± 2632 ng | Metabolic ratio (metabolite AUC to berberine AUC) [3, 11]: 0.09% | Xb,12h (amount excreted into bile for 12 h) [3, 11]: 281.5 ± 250.2 ng | Xu,12h (amount excreted into urine for 12 h) [3, 11]: 199.3 ± 76.1 ng | fold increase in AUC [3, 12]: 9.3 fold | AUC [3, 13]: 28.1 ng·h/mL | Cmax [3, 13]: 5.45 ± 3.12 ng/mL | Tmax [3, 14]: 10.7 h | AUC [3, 15]: 3.04 ng·h/mL | Cmax [3, 15]: 0.64 ± 0.19 ng/mL | Tmax [3, 16]: 7 h | stability after glucuronidase and sulfatase treatment [4, 17]: stable | increase of peak after glucuronidase and sulfatase treatment ([4]; rat bile collected 12 h after oral berberine): 10.6 fold
Compound: COc1c(O)ccc2cc3[n+](cc12)CCc1cc2c(cc1-3)OCO2 [Thalifendine]

Tmax ([3]; rat, in vivo, po, 50 mg/kg): 10.67 ± 2.31 h | fold increase in AUC ([3]; rat, in vivo, po, 50 mg/kg): 5.8 fold
Compound: thalifendine/berberrubine-sulfate
